These results are taken from paper doi:10.1101/2021.10.07.463234v2 (biorxiv, 2021).

The target of the assay is SARS-CoV-2 Mac1 (Severe acute respiratory syndrome coronavirus 2, UniProt P0DTD1). Put plainly: biochemical. The note with it: for inhibition at 100 µM: read-out: %inhibition; for %inhibition: 100 µM, inhibitor.

Structures can show the parent of a compound that is named as a salt.

Regarding `CCNC(=O)[C@@H]1CCCN1C(=O)[C@H](CCCNC(=N)N)NC(=O)[C@H](CC(C)C)NC(=O)[C@@H](CC(C)C)NC(=O)[C@H](Cc1ccc(O)cc1)NC(=O)[C@H](CO)NC(=O)[C@H](Cc1c[nH]c2ccccc12)NC(=O)[C@H](Cc1c[nH]cn1)NC(=O)[C@@H]1CCC(=O)N1` [Leuprolide Acetate], the inhibition (usually how much of the control response was suppressed) at 100 µM was 13.2%.

In the case of `CCNC(=O)[C@@H]1CCCN1C(=O)[C@H](CCCNC(=N)N)NC(=O)[C@H](CC(C)C)NC(=O)[C@@H](CC(C)C)NC(=O)[C@H](Cc1ccc(O)cc1)NC(=O)[C@H](CO)NC(=O)[C@H](Cc1c[nH]c2ccccc12)NC(=O)[C@H](Cc1c[nH]cn1)NC(=O)[C@@H]1CCC(=O)N1` [Leuprorelin Acetate], the %inhibition – broadly, the relative decrease from the control value, in per cent – was found to be 6.662%. `c1ccc([C@H]2CN3CCSC3=N2)cc1` [Levamisole hydrochloride]: the inhibition at 100 µM turned out to be 0%. On the same count and under the same terms, for `CC[C@@H](C(N)=O)N1CCCC1=O` [Levetiracetam] the value was 0%; for `CC(C)NC[C@H](O)COc1ccc(CCOCC2CC2)cc1` [Levobetaxolol HCl], 12.1%.

On to `CCCCN1CCCC[C@H]1C(=O)Nc1c(C)cccc1C` [Levobupivacaine HCl], for which the inhibition at 100 µM came out at 0%. Regarding `O=C(O)COCCN1CCN([C@H](c2ccccc2)c2ccc(Cl)cc2)CC1` [Levocetirizine Dihydrochloride], the inhibition at 100 µM came out at 7.84%. With `OC[C@@H](O)CN1CCN(c2ccccc2)CC1` [Levodropropizine], the inhibition at 100 µM is 4.43%. For the compound `C[C@H]1COc2c(N3CCN(C)CC3)c(F)cc3c(=O)c(C(=O)O)cn1c23` [Levofloxacin hydrate], the “%inhibition” value stood at 0%. Consider `C[C@H]1COc2c(N3CCN(C)CC3)c(F)cc3c(=O)c(C(=O)O)cn1c23` [Levofloxacin], for which the “%inhibition” value is on record as 22.21%. As to `C#C[C@]1(O)CC[C@H]2[C@@H]3CCC4=CC(=O)CC[C@@H]4[C@H]3CC[C@@]21CC` [Levonorgestrel], the inhibition at 100 µM was determined as 53.4%. As to `C[C@@H]1CC(=O)NN=C1c1ccc(NN=C(C#N)C#N)cc1` [Levosimendan], the inhibition at 100 µM worked out at 0%. On to `CCN1CCC[C@H]1CNC(=O)c1cc(S(N)(=O)=O)ccc1OC` [Levosulpiride], for which the inhibition at 100 µM was 0%. Regarding `N[C@@H](Cc1cc(I)c(Oc2cc(I)c(O)c(I)c2)c(I)c1)C(=O)O` [Levothyroxine sodium], the “%inhibition” value is reported as 4.124%. Same read-out and setting: with `CCN(CC)CC(=O)Nc1c(C)cccc1C` [Lidocaine hydrochloride] the figure was 4.808%; with `CCN(CC)CC(=O)Nc1c(C)cccc1C` [Lidocaine], 1.6%. `CS(=O)(=O)c1cccc(C[C@H](NC(=O)c2c(Cl)cc3c(c2Cl)CCN(C(=O)c2ccc4ccoc4c2)C3)C(=O)O)c1` [Lifitegrast]: the inhibition at 100 µM came to 0%. Still for that read-out and setting: with `CC#CCn1c(N2CCC[C@@H](N)C2)nc2c1c(=O)n(Cc1nc(C)c3ccccc3n1)c(=O)n2C` [Linagliptin] the figure was 23.9%.

With `CCC[C@@H]1C[C@@H](C(=O)N[C@@H]([C@H]2O[C@H](SC)[C@H](O)[C@@H](O)[C@H]2O)[C@@H](C)O)N(C)C1` [Lincomycin HCl], the “%inhibition” value is 0%. On the same count and under the same terms, with `CCC[C@@H]1C[C@@H](C(=O)N[C@@H]([C@H]2O[C@H](SC)[C@H](O)[C@@H](O)[C@H]2O)[C@@H](C)O)N(C)C1` [Lincomycin Hydrochloride Monohydrate] the figure was 16.9%. For the compound `CC(=O)NC[C@H]1CN(c2ccc(N3CCOCC3)c(F)c2)C(=O)O1` [Linezolid], the inhibition at 100 µM turned out to be 0%.

Take `Cc1ccc(F)c(NC(=O)Nc2ccc(-c3cccc4[nH]nc(N)c34)cc2)c1` [Linifanib (ABT-869)]: the inhibition at 100 µM came out at 52.3%. On the same count and under the same terms, for `C[C@]1(O)C[C@@H](c2nc(-c3ccc4ccc(-c5ccccc5)nc4c3)c3c(N)nccn32)C1` [Linsitinib (OSI-906)] the value was 9.54%; for `NCCCC[C@H](N[C@@H](CCc1ccccc1)C(=O)O)C(=O)N1CCC[C@H]1C(=O)O` [Lisinopril], 3.22%. Same read-out and setting: with `C[C@H](CCC(=O)O)[C@H]1CC[C@H]2[C@@H]3CC[C@@H]4C[C@H](O)CC[C@]4(C)[C@H]3CC[C@]12C` [Lithocholic acid] the figure was 0%. With `CCn1cc(C(=O)O)c(=O)c2cc(F)c(N3CCNC(C)C3)c(F)c21` (stereo not drawn) [Lomefloxacin], the inhibition at 100 µM was 0%. For the compound `COc1ccc(CN2CCN(C(c3ccc(F)cc3)c3ccc(F)cc3)CC2)c(OC)c1OC` [Lomerizine 2HCl], the inhibition at 100 µM came to 12.8%. Turning to `CC(C)(C)C#Cc1cc(N(C(=O)[C@H]2CC[C@H](C)CC2)[C@H]2CC[C@H](O)CC2)c(C(=O)O)s1` [Lomibuvir (VX-222, VCH-222)], the inhibition at 100 µM was 2.87%.

As to `O=C(NC1CCN(CCCCC2(C(=O)NCC(F)(F)F)c3ccccc3-c3ccccc32)CC1)c1ccccc1-c1ccc(C(F)(F)F)cc1` [Lomitapide Mesylate], the “%inhibition” value is reported as 34.98%.

For the compound `O=C(NC1CCN(CCCCC2(C(=O)NCC(F)(F)F)c3ccccc3-c3ccccc32)CC1)c1ccccc1-c1ccc(C(F)(F)F)cc1` [Lomitapide], the inhibition at 100 µM came to 17.8%. As for `NC(=O)N1CCC(CC(=O)N2CCC([C@H]3c4ncc(Br)cc4CCc4cc(Cl)cc(Br)c43)CC2)CC1` [Lonafarnib], the inhibition at 100 µM came to 29.6%. As for `O=C(O)c1nn(Cc2ccc(Cl)cc2Cl)c2ccccc12` [Lonidamine], the inhibition at 100 µM is 7.38%. Turning to `Cc1cccc(C)c1OCC(=O)N[C@@H](Cc1ccccc1)[C@@H](O)C[C@H](Cc1ccccc1)NC(=O)[C@H](C(C)C)N1CCCNC1=O` [Lopinavir], the inhibition at 100 µM was 0%. For `CN1C(C(=O)Nc2ccccn2)=C(O)c2sc(Cl)cc2S1(=O)=O` [Lornoxicam], the inhibition at 100 µM stood at 18.3%.

Turning to `CCCCc1nc(Cl)c(CO)n1Cc1ccc(-c2ccccc2-c2nnn[nH]2)cc1` [Losartan Potassium (DuP 753)], the “%inhibition” value amounted to 0%. On to `CCCCc1nc(Cl)c(CO)n1Cc1ccc(-c2ccccc2-c2nnn[nH]2)cc1` [Losartan], for which the “%inhibition” value is reported as 18.38%. As to `Cc1c(F)cc(C(=O)NC2CC2)cc1-c1ccc(C(=O)NCC(C)(C)C)cn1` [Losmapimod (GW856553X)], the inhibition at 100 µM turned out to be 0%. The same measure, in the same setting: with `CCOC(=O)O[C@]1(C(=O)OCCl)CC[C@H]2[C@@H]3CCC4=CC(=O)C=C[C@]4(C)[C@H]3[C@@H](O)C[C@@]21C` [Loteprednol etabonate] the figure was 0%; with `CC[C@H](C)C(=O)O[C@H]1C[C@@H](C)C=C2C=C[C@H](C)[C@H](CC[C@@H]3C[C@@H](O)CC(=O)O3)[C@H]21` [Lovastatin], 0%; with `CN1CCN(C2=Nc3ccccc3Oc3ccc(Cl)cc32)CC1` [Loxapine Succinate], 30.4%.

Take `CC(C(=O)O)c1ccc(CC2CCCC2=O)cc1` (stereo not drawn) [Loxoprofen Sodium]: the “%inhibition” value is given as 0%.

On to `CC(C(=O)O)c1ccc(CC2CCCC2=O)cc1` (stereo not drawn) [Loxoprofen], for which the “%inhibition” value is 5.364%. As to `CCCCC(F)(F)[C@@]1(O)CC[C@H]2[C@@H](CC(=O)[C@@H]2CCCCCCC(=O)O)O1` [Lubiprostone], the inhibition at 100 µM was 13.8%. Turning to `N#C/C(=C1/SC[C@@H](c2ccc(Cl)cc2Cl)S1)n1ccnc1` [Luliconazole], the inhibition at 100 µM is 24.1%.

As to `CCCCN(CCCC)CC(O)c1cc(Cl)cc2c1-c1ccc(Cl)cc1/C2=C/c1ccc(Cl)cc1` (stereo not drawn) [Lumefantrine], the inhibition at 100 µM stood at 0%.
